Data as given in PubChem BioAssay (NCI).
Several values for one entry are separate records, joined by “and”; a condition that tells them apart may be missing. Equal entries are not always repeated.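 Each compound was tested at five concentrations against cells in 96-well plates for 48 hours. GI50 marks 50% less growth. TGI denotes the concentration required for complete inhibition of growth.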

Assays:
Assay in all cases: inhibition of tumour cell growth, NCI panel, 48 h
MCF7 breast = system: MCF7 breast
NCI-H522 lung = system: NCI-H522 lung
A498 renal = system: A498 renal
SR leukemia = system: SR leukemia
SF-268 CNS = system: SF-268 CNS
NCI-H460 lung = system: NCI-H460 lung
OVCAR-5 ovarian = system: OVCAR-5 ovarian
SNB-75 CNS = system: SNB-75 CNS
OVCAR-3 ovarian = system: OVCAR-3 ovarian
HS 578T breast = system: HS 578T breast

COc1cc(/C=N/Nc2ncnc3c2cnn3Cc2ccccc2)ccc1O
GI50 (MCF7 breast): > 18 µM | TGI (MCF7 breast): > 25 µM | GI50 (NCI-H522 lung): 5.37 µM | TGI (NCI-H522 lung): > 22.8 µM | GI50 (A498 renal): > 18.3 µM | TGI (A498 renal): > 25 µM | GI50 (SR leukemia): > 25 µM | TGI (SR leukemia): > 25 µM | GI50 (SF-268 CNS): 5.34 µM | TGI (SF-268 CNS): 14.3 µM | GI50 (NCI-H460 lung): 8.98 µM | TGI (NCI-H460 lung): > 25 µM | GI50 (OVCAR-5 ovarian): > 25 µM | TGI (OVCAR-5 ovarian): > 25 µM | GI50 (SNB-75 CNS): 3.29 µM | TGI (SNB-75 CNS): 11.4 µM | GI50 (OVCAR-3 ovarian): 6.8 µM | TGI (OVCAR-3 ovarian): > 19.7 µM | GI50 (HS 578T breast): 4.16 µM | TGI (HS 578T breast): > 21.2 µM

COc1cc(C(=O)Nc2cc(O)c(C/C=C(\C)CCC=C(C)C)c(O)c2)cc2c1O[C@]1(C)CC[C@@H](O)C(C)(C)[C@H]1C2
GI50 (MCF7 breast): 0.0507 µM and 0.104 µM | TGI (MCF7 breast): 12.3 µM | GI50 (NCI-H522 lung): 7 µM and 1.29 µM | TGI (NCI-H522 lung): 11.6 µM | GI50 (A498 renal): 0.0623 µM and 0.0258 µM | TGI (A498 renal): 1.72 µM and 0.889 µM | GI50 (SR leukemia): 0.0382 µM and 0.0219 µM | TGI (SR leukemia): 7.2 µM and 5.93 µM | GI50 (SF-268 CNS): 1.1 µM and 0.741 µM | TGI (SF-268 CNS): 15.8 µM | GI50 (NCI-H460 lung): 0.083 µM and 0.101 µM | TGI (NCI-H460 lung): 13.5 µM | GI50 (OVCAR-5 ovarian): 2.89 µM and 3.49 µM | TGI (OVCAR-5 ovarian): 21.6 µM | GI50 (SNB-75 CNS): 0.00898 µM and < 0.0111 µM | TGI (SNB-75 CNS): 7.56 µM | GI50 (OVCAR-3 ovarian): 3.17 µM and 1.76 µM | TGI (OVCAR-3 ovarian): 6.12 µM | GI50 (HS 578T breast): 0.0144 µM | TGI (HS 578T breast): 14.8 µM

O=C1C(Cl)=C(Nc2ccccn2)C(=O)c2ccccc21
GI50 (MCF7 breast): 1.96 µM | TGI (MCF7 breast): 4.12 µM | GI50 (NCI-H522 lung): 1.89 µM | TGI (NCI-H522 lung): 3.69 µM | GI50 (A498 renal): 12.9 µM | TGI (A498 renal): 25.6 µM | GI50 (SR leukemia): 2.49 µM | TGI (SR leukemia): 5.32 µM | GI50 (SF-268 CNS): 2.74 µM | TGI (SF-268 CNS): 7.55 µM | GI50 (NCI-H460 lung): 3.25 µM | TGI (NCI-H460 lung): 11.4 µM | GI50 (OVCAR-5 ovarian): 7.42 µM | TGI (OVCAR-5 ovarian): 23.2 µM | GI50 (SNB-75 CNS): 2 µM | TGI (SNB-75 CNS): 4.49 µM | GI50 (OVCAR-3 ovarian): 1.86 µM | TGI (OVCAR-3 ovarian): 3.98 µM | GI50 (HS 578T breast): 3.65 µM | TGI (HS 578T breast): > 100 µM

CN1CCN(CCCOc2ccc3nc(Nc4ccc(C(F)(F)F)c(Cl)c4)ccc3c2)CC1
GI50 (MCF7 breast): 1.37 µM | TGI (MCF7 breast): 3.56 µM | GI50 (NCI-H522 lung): 2.02 µM | TGI (NCI-H522 lung): 3.74 µM | GI50 (A498 renal): 0.932 µM | TGI (A498 renal): 2.54 µM | GI50 (SR leukemia): 1.17 µM | TGI (SR leukemia): 4.01 µM | GI50 (SF-268 CNS): 1.66 µM | TGI (SF-268 CNS): 3.43 µM | GI50 (NCI-H460 lung): 1.88 µM | TGI (NCI-H460 lung): 4.14 µM | GI50 (OVCAR-5 ovarian): 1.8 µM | TGI (OVCAR-5 ovarian): 3.75 µM | GI50 (SNB-75 CNS): 0.903 µM | TGI (SNB-75 CNS): 2.94 µM | GI50 (OVCAR-3 ovarian): 1.64 µM | TGI (OVCAR-3 ovarian): 3.46 µM | GI50 (HS 578T breast): 1.82 µM | TGI (HS 578T breast): 6.1 µM

Cc1ccc2nc(CC(=O)c3ccc4ccccc4c3)c(=O)[nH]c2c1
TGI (MCF7 breast): > 100 µM | TGI (NCI-H522 lung): > 100 µM | TGI (A498 renal): > 100 µM | TGI (SR leukemia): > 100 µM | TGI (SF-268 CNS): > 100 µM | TGI (NCI-H460 lung): > 100 µM | TGI (OVCAR-5 ovarian): > 100 µM | TGI (SNB-75 CNS): > 100 µM | TGI (OVCAR-3 ovarian): > 100 µM | TGI (HS 578T breast): > 100 µM

O=C(Nc1ccc(O)c(NS(=O)(=O)c2ccc(F)cc2)c1)c1ccc(-c2ccccc2)cc1
GI50 (MCF7 breast): 3.85 µM | TGI (MCF7 breast): 17.4 µM | GI50 (NCI-H522 lung): 2.27 µM | TGI (NCI-H522 lung): 8.7 µM | GI50 (A498 renal): 13.4 µM | TGI (A498 renal): 26.7 µM | GI50 (SR leukemia): 2.47 µM | TGI (SR leukemia): 9.3 µM | GI50 (SF-268 CNS): 6.49 µM | TGI (SF-268 CNS): 33.2 µM | GI50 (NCI-H460 lung): 3.85 µM | TGI (NCI-H460 lung): 15.9 µM | GI50 (OVCAR-5 ovarian): 13.6 µM | TGI (OVCAR-5 ovarian): 27 µM | GI50 (SNB-75 CNS): 2.68 µM | TGI (SNB-75 CNS): 15.7 µM | GI50 (OVCAR-3 ovarian): 4.72 µM | TGI (OVCAR-3 ovarian): 22.1 µM | GI50 (HS 578T breast): 5.42 µM | TGI (HS 578T breast): 31.8 µM
